We go through 21 compounds from ChEMBL document CHEMBL1177783, “Discovery of aminopyridines substituted with benzoxazole as orally active c-Met kinase inhibitors” (Bioorg Med Chem Lett, 2010).

Data set [1] concerns the target Hepatocyte growth factor receptor (Homo sapiens, UniProt P08581). Description: Inhibition of recombinant c-MET by HTRF assay.
A further data set has as its target hERG (KCNH2) (Homo sapiens, UniProt Q12809). The experiment in a line: Displacement of [3H]astemizole from human ERG expressed in HEK293 cells at 10 uM. To be noted: HEK293 cells expressing human ERG, probe [3H]astemizole.
Data set [2] is described as follows: Volume of distribution at steady state in rat at 10 mg/kg, iv. Type of data set: ADME, organism-based. Further details: dose 10 mg/kg, route intravenous. To be noted: in vivo, read-out: Vdss.
The nature of data set [3]: AUC in rat at 10 mg/kg, po. The arrangement: dose 10 mg/kg, route oral. To be noted: plasma. The data set is classed as ADME, organism-based.
A short description of data set [4]: Oral bioavailability in rat at 10 mg/kg. Type of data set: ADME, organism-based. To be noted: in vivo.
The nature of data set [5]: Clearance in rat at 10 mg/kg, iv. The data set is classed as ADME, organism-based. The arrangement: dose 10 mg/kg, route intravenous. To be noted: in vivo.
Data set [6] can be described thus: AUC in rat at 10 mg/kg, iv. The data set is classed as ADME, organism-based. Further details: dose 10 mg/kg, route intravenous. To be noted: plasma.
Data set [7] in a line: Cmax in rat at 10 mg/kg, po. The data set is classed as ADME, organism-based. The arrangement: dose 10 mg/kg, route oral. To be noted: in vivo.

Chain of Hepatocyte growth factor receptor (P08581 whole entry): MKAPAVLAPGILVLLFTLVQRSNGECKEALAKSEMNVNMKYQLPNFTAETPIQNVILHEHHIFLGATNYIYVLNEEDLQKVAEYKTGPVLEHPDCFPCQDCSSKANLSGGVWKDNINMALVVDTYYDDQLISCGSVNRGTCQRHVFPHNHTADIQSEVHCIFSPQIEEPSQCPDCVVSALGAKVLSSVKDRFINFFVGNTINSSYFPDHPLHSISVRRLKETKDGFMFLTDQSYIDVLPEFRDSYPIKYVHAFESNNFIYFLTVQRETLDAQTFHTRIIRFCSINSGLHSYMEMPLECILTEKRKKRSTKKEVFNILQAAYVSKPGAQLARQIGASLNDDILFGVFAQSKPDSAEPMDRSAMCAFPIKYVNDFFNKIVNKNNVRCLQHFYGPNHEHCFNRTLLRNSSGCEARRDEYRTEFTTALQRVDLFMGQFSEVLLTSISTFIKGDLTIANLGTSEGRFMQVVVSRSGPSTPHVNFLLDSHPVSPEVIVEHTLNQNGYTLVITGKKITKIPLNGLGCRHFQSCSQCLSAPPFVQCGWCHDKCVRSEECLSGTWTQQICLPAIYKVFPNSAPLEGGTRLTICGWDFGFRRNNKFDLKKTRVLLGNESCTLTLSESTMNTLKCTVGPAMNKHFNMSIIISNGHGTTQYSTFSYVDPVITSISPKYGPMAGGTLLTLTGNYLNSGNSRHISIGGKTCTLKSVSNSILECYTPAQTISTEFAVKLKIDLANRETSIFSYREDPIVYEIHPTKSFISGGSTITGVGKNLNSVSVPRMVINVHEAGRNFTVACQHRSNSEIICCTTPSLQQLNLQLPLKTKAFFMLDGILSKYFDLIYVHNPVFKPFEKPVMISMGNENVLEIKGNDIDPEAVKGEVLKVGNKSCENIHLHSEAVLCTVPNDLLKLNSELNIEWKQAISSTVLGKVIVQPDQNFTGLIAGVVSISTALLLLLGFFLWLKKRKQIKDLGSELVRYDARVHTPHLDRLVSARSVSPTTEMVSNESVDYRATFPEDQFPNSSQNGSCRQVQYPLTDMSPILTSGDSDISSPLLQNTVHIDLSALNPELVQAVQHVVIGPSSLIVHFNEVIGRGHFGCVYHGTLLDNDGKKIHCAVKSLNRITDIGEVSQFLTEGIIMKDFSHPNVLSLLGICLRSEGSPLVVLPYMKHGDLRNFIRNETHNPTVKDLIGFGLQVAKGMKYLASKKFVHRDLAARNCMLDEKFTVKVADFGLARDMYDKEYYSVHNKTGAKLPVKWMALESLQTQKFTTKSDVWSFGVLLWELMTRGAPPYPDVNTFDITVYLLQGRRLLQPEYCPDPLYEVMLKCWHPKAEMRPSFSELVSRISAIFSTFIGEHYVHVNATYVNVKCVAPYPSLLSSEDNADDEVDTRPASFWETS
Chain of hERG (KCNH2) (Q12809 whole entry): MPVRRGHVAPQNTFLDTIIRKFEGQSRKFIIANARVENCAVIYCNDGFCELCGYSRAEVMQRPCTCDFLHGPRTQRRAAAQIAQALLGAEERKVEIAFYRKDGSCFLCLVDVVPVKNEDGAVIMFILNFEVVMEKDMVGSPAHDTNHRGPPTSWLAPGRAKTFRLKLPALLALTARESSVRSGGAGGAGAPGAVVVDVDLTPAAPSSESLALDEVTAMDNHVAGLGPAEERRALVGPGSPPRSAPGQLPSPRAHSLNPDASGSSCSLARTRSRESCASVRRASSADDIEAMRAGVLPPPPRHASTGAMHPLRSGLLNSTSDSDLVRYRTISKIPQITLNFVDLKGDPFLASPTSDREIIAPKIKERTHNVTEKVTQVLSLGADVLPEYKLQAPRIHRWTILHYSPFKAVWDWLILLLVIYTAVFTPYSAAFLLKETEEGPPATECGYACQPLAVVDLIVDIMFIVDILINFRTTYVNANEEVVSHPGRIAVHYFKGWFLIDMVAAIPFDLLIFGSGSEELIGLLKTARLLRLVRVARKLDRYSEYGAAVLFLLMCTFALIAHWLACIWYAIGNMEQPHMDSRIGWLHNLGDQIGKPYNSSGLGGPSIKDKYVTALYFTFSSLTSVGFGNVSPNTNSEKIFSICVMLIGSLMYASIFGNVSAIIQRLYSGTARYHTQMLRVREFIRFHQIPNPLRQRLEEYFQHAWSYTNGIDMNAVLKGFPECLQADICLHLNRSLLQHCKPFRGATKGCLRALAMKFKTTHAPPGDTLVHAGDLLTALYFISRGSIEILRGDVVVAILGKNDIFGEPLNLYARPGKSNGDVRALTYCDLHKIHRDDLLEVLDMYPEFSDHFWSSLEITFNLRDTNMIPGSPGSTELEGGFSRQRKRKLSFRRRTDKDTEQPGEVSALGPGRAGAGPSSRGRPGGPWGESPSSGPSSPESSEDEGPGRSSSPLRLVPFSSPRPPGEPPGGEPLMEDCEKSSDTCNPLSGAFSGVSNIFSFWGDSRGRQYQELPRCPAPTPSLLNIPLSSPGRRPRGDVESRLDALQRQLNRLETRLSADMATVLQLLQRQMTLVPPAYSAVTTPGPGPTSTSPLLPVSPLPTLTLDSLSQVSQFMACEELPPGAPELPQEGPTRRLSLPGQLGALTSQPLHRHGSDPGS

A word on the IC50: it is the concentration at which inhibition is half-maximal. As for `CCN(CC)C(=O)N1CCC(n2cc(-c3cnc(N)c(-c4nc5ccccc5o4)c3)cn2)CC1`, the 50% inhibitory concentration (IC50) in data set [1] turned out to be 0.357 µM.

On to `COC(=O)N1CCC(n2cc(-c3cnc(N)c(-c4nc5ccccc5o4)c3)cn2)CC1`, for which the 50% inhibitory concentration (IC50) in data set [1] was 0.058 µM.

`CS(=O)(=O)N1CCC(n2cc(-c3cnc(N)c(-c4nc5ccccc5o4)c3)cn2)CC1`: the IC50 in data set [1] was 0.371 µM.

Consider `COCC(=O)N1CCC(n2cc(-c3cnc(N)c(-c4nc5ccccc5o4)c3)cn2)CC1`, for which, in data set [1], the half-maximal inhibitory concentration (IC50) was 0.017 µM.

For the compound `CN(C)CC(=O)N1CCC(n2cc(-c3cnc(N)c(-c4nc5ccccc5o4)c3)cn2)CC1`, the concentration for half-maximal inhibition (IC50) in data set [1] came out at 0.06 µM.

As for `Nc1ncc(-c2ccncc2)cc1-c1nc2ccccc2o1`, the IC50 in data set [1] was determined as 5.2 µM.

Regarding `Nc1ncc(-c2cccnc2)cc1-c1nc2ccccc2o1`, the half-maximal inhibitory concentration (IC50) in data set [1] was more than 10 µM.

With `Nc1ncc(-c2ccccc2)cc1-c1nc2ccccc2o1`, the IC50 in data set [1] was more than 10 µM.

Usually inhibition stands for the drop in the measured response relative to a control, in per cent. With `Cn1cc(-c2cnc(N)c(-c3nc4ccccc4o3)c2)cn1`, in data set [1], the IC50 amounted to 2.1 µM. The same compound showed an inhibition at 10 µM at hERG (KCNH2) of 15%.

Consider `Nc1ncc(-c2cnn(C3CCOCC3)c2)cc1-c1nc2ccccc2o1`, for which the IC50 in data set [1] turned out to be 0.43 µM.

For `Nc1ncc(-c2cnn(C3CCNCC3)c2)cc1-c1nc2ccccc2o1`, the IC50 in data set [1] was determined as 0.08 µM.

Regarding `Cn1cc(-c2cncc(-c3nc4ccccc4o3)c2)cn1`, the IC50 in data set [1] was more than 10 µM.

For `CCC(=O)N1CCC(n2cc(-c3cnc(N)c(-c4nc5ccccc5o4)c3)cn2)CC1`, in data set [1], the IC50 came to 0.007 µM.

Turning to `Nc1ncc(-c2cnn(C3CCN(C(=O)c4ccccc4)CC3)c2)cc1-c1nc2ccccc2o1`, the IC50 in data set [1] is 0.14 µM.

As to `Nc1ncc(-c2cnn(CCO)c2)cc1-c1nc2ccccc2o1`, in data set [1], the concentration for half-maximal inhibition (IC50) turned out to be 1.3 µM.

The term AUC denotes the area under the concentration-time curve, a measure of exposure. In general, bioavailability refers to dose-corrected exposure relative to a reference, in per cent. Read a low bioavailability as little systemic uptake. As a reminder, the clearance is a measure of how efficiently the substance is removed, as volume per time. Higher therefore signals efficient removal. The Cmax is the peak of the concentration-time curve. For the compound `CC(=O)N1CCC(n2cc(-c3cnc(N)c(-c4nc5ccccc5o4)c3)cn2)CC1.Cl`, the 50% inhibitory concentration (IC50) in data set [1] worked out at 0.003 µM. Besides, the Vd in data set [2] came out at 2.4 L/kg. Moreover, the area under the curve (AUC) is 2700 ng·h/mL in data set [3] and 5600 ng·h/mL in data set [6]. The compound also displayed a bioavailability in data set [4] of 47%. The clearance in data set [5] was 30 mL/min/kg. The compound further came in with a Cmax in data set [7] of 600 ng/mL.

As to `Nc1ncc(-c2cnn(C3CCN(C(=O)CO)CC3)c2)cc1-c1nc2ccccc2o1`, the IC50 in data set [1] came out at 0.026 µM.

As to `c1ccc2oc(-c3cncc(-c4cnn(C5CCNCC5)c4)c3)nc2c1`, the IC50 in data set [1] is more than 10 µM.

As to `CNc1ncc(-c2cnn(C)c2)cc1-c1nc2ccccc2o1`, the 50% inhibitory concentration (IC50) in data set [1] was more than 10 µM.

For `Cn1cc(-c2cnc(NCc3ccccc3)c(-c3nc4ccccc4o3)c2)cn1`, the IC50 in data set [1] was more than 10 µM.

Turning to `CNc1ncc(-c2cnn(C3CCNCC3)c2)cc1-c1nc2ccccc2o1`, in data set [1], the IC50 was more than 10 µM.
